Source: patent US8492543B2, “Method for producing quinazoline derivative” (Eisai R&D Management Co., Ltd., priority 2007, dated 2013)
Where two headings read alike, the source gives them in different places. Values belong to the molecule of their own block, whether it stands above or below them.

Tests used:
CYP1A1 = details: human, hepatocytes
Procedure: Cryopreserved human hepatocytes (XenoTeck) were rapidly thawed at 37° C., and viable cells were obtained using Hepatocytes Isolation Kit (Nosan Corporation). After cells prepared were diluted with ice cold William's Medium E (10% FBS, +PSG) to give a concentration of 5×10^5 viable cells/mL, the cells were seeded onto a 48-well collagen-coated plate (BD Biosciences) at a concentration of 1×10^5 cells/cm^2 and cultured at 37° C. in 5% CO2 for 24 hours. Then, the medium was replaced with Hepato-STIM (registered trade mark: BD Biosciences) (+EGF, PSG, −FBS), and the cells were further cultured at 37° C. in 5% CO2 for 24 hours. […] The culture medium containing test compound, β-NF or Rif was replaced every 24 hours. Test compound, β-NF and Rif were each dissolved in dimethyl sulfoxide (DMSO: Wako Pure Chemical Industries, Ltd.), and culture medium containing test compound (final concentrations; 1, 3 and 10 μM), β-NF (final concentration; 10 μM) or Rif (final concentration; 10 μM) was prepared by adding them to Hepato-STIM(+EGF, PSG, −FBS), respectively. Final concentration of DMSO was set to be 0.1%, and culture medium containing 0.1% DMSO was used for control. […] The levels of mRNA for CYP1A1 and GAPDH were quantified using SYBR Green PCR Core Reagents Kit (Applied Biosystems), and those for CYP1A2 and that of CYP3A4 were measured using Taqman PCR Core Reagents Kit (Applied Biosystems) and ABI Prism 7900 Sequence Detection System (Applied Biosystems).
(§1) The ability of a test compound to induce CYP1A1 was calculated as follows: Ability of a test compound to induce CYP1A1(%)={[(amount of mRNA of CYP1A1 in test compound treated cells)/(amount of mRNA of GAPDH in test compound treated cells)]/[(amount of mRNA of CYP1A1 in control cells)/(amount of mRNA of GAPDH in control cells)]−1}/{[(amount of mRNA of CYP1A1 in positive control treated cells)/(amount of mRNA of GAPDH in positive control treated cells)]/[(amount of mRNA of CYP1A1 in control cells)/(amount of mRNA of GAPDH in control cells)]−1}×100

CYP1A2 [1] = details: human, hepatocytes
Procedure: (§2) Cryopreserved human hepatocytes (XenoTeck) were rapidly thawed at 37° C., and viable cells were obtained using Hepatocytes Isolation Kit (Nosan Corporation). After cells prepared were diluted with ice cold William's Medium E (10% FBS, +PSG) to give a concentration of 5×10^5 viable cells/mL, the cells were seeded onto a 48-well collagen-coated plate (BD Biosciences) at a concentration of 1×10^5 cells/cm^2 and cultured at 37° C. in 5% CO2 for 24 hours. Then, the medium was replaced with Hepato-STIM (registered trade mark: BD Biosciences) (+EGF, PSG, −FBS), and the cells were further cultured at 37° C. in 5% CO2 for 24 hours. […] The culture medium containing test compound, β-NF or Rif was replaced every 24 hours. Test compound, β-NF and Rif were each dissolved in dimethyl sulfoxide (DMSO: Wako Pure Chemical Industries, Ltd.), and culture medium containing test compound (final concentrations; 1, 3 and 10 μM), β-NF (final concentration; 10 μM) or Rif (final concentration; 10 μM) was prepared by adding them to Hepato-STIM(+EGF, PSG, −FBS), respectively. Final concentration of DMSO was set to be 0.1%, and culture medium containing 0.1% DMSO was used for control. After completion of the treatment, the cells were washed with PBS once, and total RNA was purified using Total RNA Purification Kit (Applied Biosystems). The purified total RNA was subjected to reverse transcription reaction using TaqMan Reverse Transcription Reagents (Applied Biosystems) to synthesize cDNA, where oligo dT was used as a primer. The reaction was carried out using Gene Amp PCR system 9700 at 25° C. for 10 minutes, followed by at 48° C. for 60 minutes. Then, reverse transcriptase was deactivated at 95° C. for 10 minutes. The levels of mRNA for CYP1A1 and GAPDH were quantified using SYBR Green PCR Core Reagents Kit (Applied Biosystems), and those for CYP1A2 and that of CYP3A4 were measured using Taqman PCR Core Reagents Kit (Applied Biosystems) and ABI Prism 7900 Sequence Detection System (Applied Biosystems).
as §1
(§3) The ability to induce CYP1A2 or CYP3A4 was calculated in the same manner described above.

CYP3A4 = assay: Induction potency of drug metabolizing enzyme (CYP) using cryopreserved human hepatocytes: CYP3A4 mRNA; details: approx. 48 hours, mRNA relative to Rif 10 μM
Procedure: Cryopreserved human hepatocytes (XenoTeck) were rapidly thawed at 37° C., and viable cells were obtained using Hepatocytes Isolation Kit (Nosan Corporation). After cells prepared were diluted with ice cold William's Medium E (10% FBS, +PSG) to give a concentration of 5×10^5 viable cells/mL, the cells were seeded onto a 48-well collagen-coated plate (BD Biosciences) at a concentration of 1×10^5 cells/cm^2 and cultured at 37° C. in 5% CO2 for 24 hours. Then, the medium was replaced with Hepato-STIM (registered trade mark: BD Biosciences) (+EGF, PSG, −FBS), and the cells were further cultured at 37° C. in 5% CO2 for 24 hours. […] The culture medium containing test compound, β-NF or Rif was replaced every 24 hours. Test compound, β-NF and Rif were each dissolved in dimethyl sulfoxide (DMSO: Wako Pure Chemical Industries, Ltd.), and culture medium containing test compound (final concentrations; 1, 3 and 10 μM), β-NF (final concentration; 10 μM) or Rif (final concentration; 10 μM) was prepared by adding them to Hepato-STIM(+EGF, PSG, −FBS), respectively. […] The levels of mRNA for CYP1A1 and GAPDH were quantified using SYBR Green PCR Core Reagents Kit (Applied Biosystems), and those for CYP1A2 and that of CYP3A4 were measured using Taqman PCR Core Reagents Kit (Applied Biosystems) and ABI Prism 7900 Sequence Detection System (Applied Biosystems).
as §1, §3

CYPs = assay: Induction potency on CYPs, overall statement (cryopreserved human hepatocytes); details: CYP1A1, CYP1A2, CYP3A4; 1, 3 and 10 μM
Procedure: Cryopreserved human hepatocytes (XenoTeck) were rapidly thawed at 37° C., and viable cells were obtained using Hepatocytes Isolation Kit (Nosan Corporation). After cells prepared were diluted with ice cold William's Medium E (10% FBS, +PSG) to give a concentration of 5×10^5 viable cells/mL, the cells were seeded onto a 48-well collagen-coated plate (BD Biosciences) at a concentration of 1×10^5 cells/cm^2 and cultured at 37° C. in 5% CO2 for 24 hours. Then, the medium was replaced with Hepato-STIM (registered trade mark: BD Biosciences) (+EGF, PSG, −FBS), and the cells were further cultured at 37° C. in 5% CO2 for 24 hours. […] The culture medium containing test compound, β-NF or Rif was replaced every 24 hours. […] The levels of mRNA for CYP1A1 and GAPDH were quantified using SYBR Green PCR Core Reagents Kit (Applied Biosystems), and those for CYP1A2 and that of CYP3A4 were measured using Taqman PCR Core Reagents Kit (Applied Biosystems) and ABI Prism 7900 Sequence Detection System (Applied Biosystems). […]
as §3

CYP1A2 [2] = assay: Induction potency of drug metabolizing enzyme (CYP) using cryopreserved human hepatocytes: CYP1A2 mRNA; details: 10 μM, approx. 48 hours, mRNA relative to β-NF 10 μM
Procedure: as §2, §1, §3

Induction Ability compared to positive control (%) CYP1A1 (CYP1A1; 1 μM): 0.1% | Induction Ability compared to positive control (%) CYP1A1 (CYP1A1; 3 μM): 0.6% | Induction Ability compared to positive control (%) CYP1A1 (CYP1A1; 10 μM): 4.6% | Induction Ability compared to positive control (%) CYP1A2 (CYP1A2 [1]; 1 μM): −0.1% | Induction Ability compared to positive control (%) CYP1A2 (CYP1A2 [1]; 3 μM): −0.7% | Induction Ability compared to positive control (%) CYP1A2 (CYP1A2 [1]; 10 μM): 2.5% | Induction Ability compared to positive control (%) CYP3A4 (CYP3A4; 1 μM): −2.4% | Induction Ability compared to positive control (%) CYP3A4 (CYP3A4; 3 μM): −3.4% | Induction Ability compared to positive control (%) CYP3A4 (CYP3A4; 10 μM): −4.0%
Structure (SMILES): COc1cc2nc(Cl)nc(-c3cccc(NC(=O)OC(C)(C)C)c3)c2cc1OC [Example 1, t-butyl [3-(2-chloro-6,7-dimethoxyquinazolin-4-yl)phenyl]carbamate]

Structure (SMILES): CNc1nc(-c2cccc(NC(=O)c3ccc(C(=O)OC)cc3)c2)c2cc(OC)c(OC)cc2n1 [Example 10, methyl N-[3-(6,7-dimethoxy-2-methylaminoquinazolin-4-yl)phenyl]terephthalamic acid]
induction potency on CYPs compared with the comparative example (CYPs): lower induction potency on CYPs than the compound of the comparative example

Induction Ability compared to positive control (%) CYP1A2 (CYP1A2 [2]): 100.0%
Structure (SMILES): O=c1cc(-c2ccccc2)oc2ccc3ccccc3c12 [β-naphthof lavone, β-naphthoflavone]
